Test results published in patent EP1383793B1 (priority 2000, dated 2001).
Residues, ends and D or L forms follow the SMILES beside them. *: point of attachment. Biotin = O=C1N[C@H]2[C@H](CS[C@H]2CCCCC(=O)*)N1

How the values were obtained:
[1] = target: T1, human insulin receptor (HIR) (Homo sapiens, UniProt P06213); assay: 125I-insulin competition binding assay on solubilised purified receptor; conditions: read-out: Kd (µM) HIR
T1 construct: made in house

[2] = target: human IGF-1 receptor (HIGF-1R) (Homo sapiens, UniProt P08069); assay: 125I-IGF-1 competition binding assay on solubilised purified receptor
Sequence of human IGF-1 receptor (HIGF-1R) (P08069 31-736 limits assumed): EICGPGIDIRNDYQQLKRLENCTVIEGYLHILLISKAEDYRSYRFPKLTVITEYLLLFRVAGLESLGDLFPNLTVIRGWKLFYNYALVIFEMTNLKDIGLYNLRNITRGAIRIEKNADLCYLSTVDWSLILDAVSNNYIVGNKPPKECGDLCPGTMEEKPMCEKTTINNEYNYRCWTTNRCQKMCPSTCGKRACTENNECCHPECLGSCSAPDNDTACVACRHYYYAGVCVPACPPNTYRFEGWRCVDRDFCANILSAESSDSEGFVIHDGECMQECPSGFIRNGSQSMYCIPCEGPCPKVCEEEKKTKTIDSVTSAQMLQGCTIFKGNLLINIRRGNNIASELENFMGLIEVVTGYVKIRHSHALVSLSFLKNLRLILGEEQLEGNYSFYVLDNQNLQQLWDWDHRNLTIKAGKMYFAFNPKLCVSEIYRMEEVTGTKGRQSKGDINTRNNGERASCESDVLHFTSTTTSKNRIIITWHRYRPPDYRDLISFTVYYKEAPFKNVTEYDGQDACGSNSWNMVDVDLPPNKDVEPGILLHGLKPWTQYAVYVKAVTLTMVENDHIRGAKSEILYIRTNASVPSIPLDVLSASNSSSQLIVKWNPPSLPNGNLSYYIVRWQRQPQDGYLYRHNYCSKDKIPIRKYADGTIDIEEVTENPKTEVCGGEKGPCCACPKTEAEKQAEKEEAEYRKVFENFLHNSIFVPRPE
Sequence of human IGF-1 receptor (HIGF-1R) (P08069 741-1367 limits assumed): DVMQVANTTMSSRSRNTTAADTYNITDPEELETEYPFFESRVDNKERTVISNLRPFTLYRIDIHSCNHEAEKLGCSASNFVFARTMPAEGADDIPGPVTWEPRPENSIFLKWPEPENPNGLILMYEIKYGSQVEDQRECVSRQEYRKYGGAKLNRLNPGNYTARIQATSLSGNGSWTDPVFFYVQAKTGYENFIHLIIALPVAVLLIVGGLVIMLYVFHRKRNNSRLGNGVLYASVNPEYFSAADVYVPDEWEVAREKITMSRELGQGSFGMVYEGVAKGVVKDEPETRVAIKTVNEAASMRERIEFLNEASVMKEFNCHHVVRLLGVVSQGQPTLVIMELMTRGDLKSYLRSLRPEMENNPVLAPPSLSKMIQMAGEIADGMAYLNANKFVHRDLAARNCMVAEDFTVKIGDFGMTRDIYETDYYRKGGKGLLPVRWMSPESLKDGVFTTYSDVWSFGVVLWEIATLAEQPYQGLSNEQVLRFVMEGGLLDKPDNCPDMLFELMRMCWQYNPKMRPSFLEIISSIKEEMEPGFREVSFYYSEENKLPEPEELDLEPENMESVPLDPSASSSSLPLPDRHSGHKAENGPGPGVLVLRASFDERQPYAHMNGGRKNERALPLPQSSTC

T1 sequence (P06213 28-758 limits assumed): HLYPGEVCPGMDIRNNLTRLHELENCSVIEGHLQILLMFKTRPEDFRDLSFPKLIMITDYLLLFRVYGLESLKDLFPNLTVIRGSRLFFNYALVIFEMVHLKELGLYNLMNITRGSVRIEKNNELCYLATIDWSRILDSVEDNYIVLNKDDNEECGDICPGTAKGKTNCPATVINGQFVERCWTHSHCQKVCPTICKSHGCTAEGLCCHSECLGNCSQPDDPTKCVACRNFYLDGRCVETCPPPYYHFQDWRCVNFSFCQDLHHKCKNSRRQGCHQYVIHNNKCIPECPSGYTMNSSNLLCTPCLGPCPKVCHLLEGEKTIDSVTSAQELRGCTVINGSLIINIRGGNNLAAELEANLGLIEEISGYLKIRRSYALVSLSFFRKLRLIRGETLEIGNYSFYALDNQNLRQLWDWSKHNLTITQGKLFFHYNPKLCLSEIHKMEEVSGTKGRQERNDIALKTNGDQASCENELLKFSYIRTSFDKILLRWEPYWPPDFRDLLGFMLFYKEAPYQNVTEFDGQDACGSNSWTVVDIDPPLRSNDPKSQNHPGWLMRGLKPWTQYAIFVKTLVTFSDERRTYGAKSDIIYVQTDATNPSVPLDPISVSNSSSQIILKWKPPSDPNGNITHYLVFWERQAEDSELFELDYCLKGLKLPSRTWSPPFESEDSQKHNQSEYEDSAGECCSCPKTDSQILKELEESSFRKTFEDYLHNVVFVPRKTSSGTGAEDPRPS
T1 sequence (P06213 763-1382 limits assumed): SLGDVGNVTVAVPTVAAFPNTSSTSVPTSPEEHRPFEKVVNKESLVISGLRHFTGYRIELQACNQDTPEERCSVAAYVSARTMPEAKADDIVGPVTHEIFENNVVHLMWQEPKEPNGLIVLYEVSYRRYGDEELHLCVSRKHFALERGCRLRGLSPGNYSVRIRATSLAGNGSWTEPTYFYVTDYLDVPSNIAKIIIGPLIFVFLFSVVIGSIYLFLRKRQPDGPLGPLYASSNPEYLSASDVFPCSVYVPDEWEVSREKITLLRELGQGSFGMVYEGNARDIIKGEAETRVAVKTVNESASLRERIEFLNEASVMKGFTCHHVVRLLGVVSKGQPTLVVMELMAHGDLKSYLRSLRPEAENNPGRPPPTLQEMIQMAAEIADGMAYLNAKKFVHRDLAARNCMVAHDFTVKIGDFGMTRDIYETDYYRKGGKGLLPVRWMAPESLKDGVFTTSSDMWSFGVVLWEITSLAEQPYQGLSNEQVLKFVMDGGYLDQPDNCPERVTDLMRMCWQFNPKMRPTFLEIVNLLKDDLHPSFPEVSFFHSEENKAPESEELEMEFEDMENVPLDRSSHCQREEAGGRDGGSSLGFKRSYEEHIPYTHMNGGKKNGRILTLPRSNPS

| Compound | Kd [1] | Kd [2] |
| --- | --- | --- |
| CC(C)C[C@H](NC(=O)[C@H](C)NC(=O)[C@H](C)NC(=O)[C@H](CCC(N)=O)NC(=O)[C@@H]1CCCN1C(=O)[C@@H](NC(=O)[C@@H](NC(=O)[C@H](Cc1ccc(O)cc1)NC(=O)[C@H](Cc1c[nH]cn1)NC(=O)[C@H](CO)NC(=O)[C@H](CCC(=O)O)NC(=O)[C@H](CC(C)C)NC(=O)[C@@H](N)CCCCN)C(C)C)C(C)C)C(=O)N[C@@H](CC(=O)O)C(=O)N[C@@H](CCCNC(=N)N)C(=O)N[C@@H](CC(C)C)C(=O)N[C@@H](Cc1ccccc1)C(=O)N[C@@H](Cc1ccc(O)cc1)C(=O)N[C@@H](CO)C(=O)N[C@@H](Cc1c[nH]c2ccccc12)C(=O)N[C@@H](Cc1ccccc1)C(=O)N[C@@H](CO)C(=O)N[C@@H](CCCCN)C(=O)N[C@@H](CCCCNC(=O)CCCC[C@@H]1SC[C@@H]2NC(=O)N[C@@H]21)C(N)=O [Clone D107] (H-KLESHYVVPQAALDRLFYSWFSKK(Biotin)-NH2) | 1.1 µM | 9.7 µM |
| CC(C)C[C@H](NC(=O)[C@H](CCC(N)=O)NC(=O)[C@H](CCCNC(=N)N)NC(=O)[C@H](CO)NC(=O)[C@H](Cc1ccccc1)NC(=O)[C@H](Cc1c[nH]c2ccccc12)NC(=O)CNC(=O)[C@H](Cc1ccc(O)cc1)NC(=O)[C@H](Cc1ccccc1)NC(=O)[C@@H](N)CCCCN)C(=O)N[C@@H](CO)C(=O)N[C@@H](CC(C)C)C(=O)N[C@H](C(=O)N1CCC[C@H]1C(=O)N[C@@H](CCCNC(=N)N)C(=O)N[C@@H](CC(=O)O)C(=O)N[C@@H](CC(=O)O)C(=O)N[C@@H](Cc1c[nH]c2ccccc12)C(=O)NCC(=O)N[C@@H](CC(C)C)C(=O)N1CCC[C@H]1C(=O)N[C@@H](CCCCN)C(=O)N[C@@H](CCCCNC(=O)CCCC[C@@H]1SC[C@@H]2NC(=O)N[C@@H]21)C(N)=O)[C@@H](C)O [Clone D108] (H-KFYGWFSRQLSLTPRDDWGLPKK(Biotin)-NH2) | 2.3 µM | 19 µM |
| CC(C)C[C@H](NC(=O)CNC(=O)[C@H](CC(=O)O)NC(=O)[C@H](CCC(N)=O)NC(=O)[C@H](CCCCN)NC(=O)[C@H](CC(N)=O)NC(=O)[C@H](CO)NC(=O)[C@@H](NC(=O)[C@H](CC(C)C)NC(=O)CNC(=O)[C@@H]1CCCN1C(=O)[C@H](C)NC(=O)[C@H](CO)NC(=O)[C@@H](N)CCCCN)C(C)C)C(=O)N[C@@H](Cc1ccccc1)C(=O)N[C@@H](Cc1ccc(O)cc1)C(=O)N[C@@H](CO)C(=O)N[C@@H](Cc1c[nH]c2ccccc12)C(=O)N[C@@H](Cc1ccccc1)C(=O)N[C@@H](CCCNC(=N)N)C(=O)N[C@@H](CCC(=O)O)C(=O)N[C@@H](CCCCN)C(=O)N[C@@H](CCCCNC(=O)CCCC[C@@H]1SC[C@@H]2NC(=O)N[C@@H]21)C(N)=O [Clone D109] (H-KSAPGLVSNKQDGLFYSWFREKK(Biotin)-NH2) | 3.6 µM | 12 µM |
| CC(C)[C@H](NC(=O)[C@H](Cc1ccccc1)NC(=O)[C@H](Cc1c[nH]c2ccccc12)NC(=O)[C@H](CC(=O)O)NC(=O)[C@H](Cc1ccc(O)cc1)NC(=O)[C@H](Cc1ccccc1)NC(=O)[C@H](CC(N)=O)NC(=O)[C@H](CCCCN)NC(=O)[C@H](C)NC(=O)[C@@H](N)CO)C(=O)N[C@@H](CCCCN)C(=O)N[C@@H](CCCCNC(=O)CCCC[C@@H]1SC[C@@H]2NC(=O)N[C@@H]21)C(N)=O [Clone D114] (H-SAKNFYDWFVKK(Biotin)-NH2) | 8.1 µM | > 20 µM |
| CSCC[C@H](NC(=O)[C@H](Cc1ccccc1)NC(=O)[C@H](Cc1c[nH]c2ccccc12)NC(=O)[C@H](CC(=O)O)NC(=O)[C@H](Cc1ccc(O)cc1)NC(=O)[C@H](Cc1ccccc1)NC(=O)[C@H](CC(N)=O)NC(=O)[C@H](CCCCN)NC(=O)[C@H](CC(=O)O)NC(=O)[C@H](C)N)C(=O)N[C@@H](C)C(=O)N[C@@H](C)C(=O)N[C@@H](CCCCN)C(=O)N[C@@H](CCCCNC(=O)CCCC[C@@H]1SC[C@@H]2NC(=O)N[C@@H]21)C(N)=O [Clone D115] (H-ADKNFYDWFMAAKK(Biotin)-NH2) | 8.1 µM | > 20 µM |
